Reference: patent US6335331B1, “Pseudopolymorphic forms of 2-[2-[4-[Bis (4-fluorophenyl) methyl]-1-piperazinyl]ethoxy]acetic acid dihydrochloride” (UCB, S.A., priority 1997, dated 2002)

Columns and labels:
[1] = Intrinsic dissolution rate (static disc method, USP XXII apparatus No 2); assay type: physicochemical; details: 70:30 (w/w) with AVICEL PH102, dihydrochloride
Protocol: Drug bioavailability studies have shown that an intrinsic dissolution rate (IDR) lower than 0.1 mg/cm^2/min can often be predictive of a dissolution rate-limited absorption in humans. Thus, IDR is a predictive parameter of bioavailability. This parameter depends upon various physicochemical properties including, the chemical form (salt, solvate), the crystal form, the solubility and wettability. The determination of IDR was performed in the following way. The Form to be tested was homogeneously ground and mixed with microcrystalline cellulose AVICEL PH102 (dry binder which improves tableting properties). The substance:excipient mix ratio was 70:30 (w/w). Aliquots (500 mg) were compressed into pellets by compression until a final applied load of 10 tons in order to obtain a constant and known surface area of zero porosity. The dissolution experiments were carried out at 37° C. using 500 ml of aqueous media at three different pH values intended to cover the expected range of human gastrointestinal pH values, i.e. 1.2, 4.0 and 7.5. Uniform and reproducible haemodynamic conditions were obtained by carrying out the test with USP XXII apparatus N°2 (United States Pharmacopoeia, 1990) in which a paddle is used as stirring element (50 rpm) and the pellet assembly is placed at the bottom of the vessel (static disc method). Statistically assessed (p<0.05) linear portions of all replicate dissolution curves were selected for subsequent IDR calculation.

[2] = Storage stability of 1:1 (w/w) binary mixtures with D-sorbitol: sorbitol-efletirizine monoester by HPLC-UV; assay type: physicochemical; details: for sorbitol-efletirizine monoester, Relative % area: 1:1 (w/w) with D-sorbitol; for monoester formation (in words): pellet with D-sorbitol
Protocol: This is illustrated in the results of the following study, aimed at examining the stabilities of the two pseudopolymorphic forms in the presence of D-sorbitol during storage under stress temperature conditions, that is, in sealed vials at 40 or 60° C. In this study, HPLC analysis of several samples was performed: Form A, Form B, D-sorbitol and 1:1 (w/w) mixtures of Form A or Form B with D-sorbitol. Each sample was homogeneously ground and mixed. Aliquots (500 mg) were compressed into 13 mm diameter pellets at an applied load of 1 ton which a usual compression strength for pharmaceutical tablets. Each compact pellet was immediately ground into a fine powder, and an aliquot was stored in a tightly sealed glass vial at 40 or 60° C. Samples were analysed by HPLC after 0, 4, 16 and 24 weeks. p In a first series of analyses, HPLC/UV spectra were collected using a Kontron HPLC system type 300 fitted with a UV detector. The column used was Supercosil RP—ABZ 250×4.6 mm I.D. 5 μm particle size, and the mobile phase used consisted of an acetonitrile/water 25:75 (v/v) mixture, the water containing 770 mg/l ammonium acetate. Samples to be analysed were dissolved in acetonitrile/water 25:75 (v/v) at a concentration of 2 mg/ml, and 10 μl of these solutions were injected in the HPLC system. Upon comparing the HPLC spectra obtained for the individual components and for the binary mixtures, new peaks detected were considered indicative of an interaction with D-sorbitol. When present, these new peaks were quantified and further identified by HPLC/MS analysis, using a VG Quattro spectrometer coupled onto a Kontron HPLC system. In HPLC/MS, the new peaks observed for the binary mixtures were identified as a sorbitol-efletirizine monoester and dehydrated forms of a sorbitol-efletirizine monoester. The latter appeared after longer storage periods than the former. […] Relative quantification of monoester was performed by HPLC-UV analysis.

[3] = Storage stability of the pure forms under stress temperature, HPLC/UV; assay type: physicochemical; details: pure form, 40° or 60° C., 4, 16 or 24 weeks
Protocol: This is illustrated in the results of the following study, aimed at examining the stabilities of the two pseudopolymorphic forms in the presence of D-sorbitol during storage under stress temperature conditions, that is, in sealed vials at 40 or 60° C. In this study, HPLC analysis of several samples was performed: Form A, Form B, D-sorbitol and 1:1 (w/w) mixtures of Form A or Form B with D-sorbitol. Each sample was homogeneously ground and mixed. Aliquots (500 mg) were compressed into 13 mm diameter pellets at an applied load of 1 ton which a usual compression strength for pharmaceutical tablets. Each compact pellet was immediately ground into a fine powder, and an aliquot was stored in a tightly sealed glass vial at 40 or 60° C. Samples were analysed by HPLC after 0, 4, 16 and 24 weeks. p In a first series of analyses, HPLC/UV spectra were collected using a Kontron HPLC system type 300 fitted with a UV detector. The column used was Supercosil RP—ABZ 250×4.6 mm I.D. 5 μm particle size, and the mobile phase used consisted of an acetonitrile/water 25:75 (v/v) mixture, the water containing 770 mg/l ammonium acetate. Samples to be analysed were dissolved in acetonitrile/water 25:75 (v/v) at a concentration of 2 mg/ml, and 10 μl of these solutions were injected in the HPLC system. […] Pure D-sorbitol was not detected in HPLC/UV. […]

[4] = Clinical pharmacology study in urticaria, atopic dermatitis and prurit; assay type: in vivo; details: clinical pharmacology study (to be published)
histamine H1-receptor = histamine H1-receptor (Homo sapiens, UniProt P35367); details: in vitro; cited from earlier work
[5] = 40° C., 4 weeks, dihydrochloride
[6] = 40° C., 16 weeks, dihydrochloride
[7] = 40° C., 24 weeks, dihydrochloride
[8] = 60° C., 0 weeks, dihydrochloride
[9] = 60° C., 4 weeks, dihydrochloride
[10] = 60° C., 16 weeks, dihydrochloride
[11] = 60° C., 24 weeks, dihydrochloride
[12] = storage at 60° C., dihydrochloride

Chain of histamine H1-receptor (P35367 whole entry, species assumed): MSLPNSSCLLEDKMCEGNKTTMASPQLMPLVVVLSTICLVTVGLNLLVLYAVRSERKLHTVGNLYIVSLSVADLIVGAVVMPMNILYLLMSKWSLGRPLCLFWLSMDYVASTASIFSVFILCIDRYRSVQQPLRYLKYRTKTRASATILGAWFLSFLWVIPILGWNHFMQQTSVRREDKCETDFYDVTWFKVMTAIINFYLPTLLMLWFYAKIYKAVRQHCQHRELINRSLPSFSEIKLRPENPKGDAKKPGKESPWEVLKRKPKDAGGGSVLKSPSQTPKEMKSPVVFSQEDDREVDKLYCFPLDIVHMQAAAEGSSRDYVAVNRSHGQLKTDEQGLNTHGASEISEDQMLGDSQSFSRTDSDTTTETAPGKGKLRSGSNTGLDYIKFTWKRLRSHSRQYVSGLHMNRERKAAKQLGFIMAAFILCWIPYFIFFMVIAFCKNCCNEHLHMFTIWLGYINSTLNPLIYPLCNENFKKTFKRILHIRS

| SMILES | Intrinsic dissolution rate ([1]; pH 1.2, 37° C.) | Intrinsic dissolution rate ([1]; pH 4.0, 37° C.) | Intrinsic dissolution rate ([1]; pH 7.5, 37° C.) | sorbitol-efletirizine monoester, Relative % area ([2]; 40° C., 0 weeks) | sorbitol-efletirizine monoester, Relative % area [2, 5] | sorbitol-efletirizine monoester, Relative % area [2, 6] | sorbitol-efletirizine monoester, Relative % area [2, 7] | sorbitol-efletirizine monoester, Relative % area [2, 8] | sorbitol-efletirizine monoester, Relative % area [2, 9] | sorbitol-efletirizine monoester, Relative % area [2, 10] | sorbitol-efletirizine monoester, Relative % area [2, 11] | monoester formation (in words) ([2]; storage at 40° C.) | monoester formation (in words) [2, 12] | modifications of the HPLC/UV spectrograms after storage [3] | results in the treatment of urticaria, atopic dermatitis and prurit [4] | affinity for H1-receptors (histamine H1-receptor) | selectivity for H1-receptors (histamine H1-receptor) |
| --- | --- | --- | --- | --- | --- | --- | --- | --- | --- | --- | --- | --- | --- | --- | --- | --- | --- |
| Cl.Cl.O=C(O)COCCN1CCN(C(c2ccc(F)cc2)c2ccc(F)cc2)CC1 [Form B, 2-[2-[4-[bis(4-fluorophenyl)methyl]-1-piperazinyl]ethoxy]acetic acid dihydrochloride] | 4.05 ± 0.64 mg/cm^2/min | 3.58 ± 0.50 mg/cm^2/min | 3.31 ± 0.04 mg/cm^2/min | 0 Relative % area | 0.13 Relative % area | 0.16 Relative % area | 0.23 Relative % area | 0.04 Relative % area | 0.87 Relative % area | 2.69 Relative % area | 2.95 Relative % area | quite low | very significant | no modifications of the spectrograms were observed | – | – | – |
| O=C(O)COCCN1CCN(C(c2ccc(F)cc2)c2ccc(F)cc2)CC1 [efletirizine, 2-[2-[4-[Bis(4-fluorophenyl)methyl]-1-piperazinyl]ethoxy]acetic acid] | – | – | – | – | – | – | – | – | – | – | – | – | – | – | unexpectedly good results | high affinity | selectivity |
| Cl.Cl.O=C(O)COCCN1CCN(C(c2ccc(F)cc2)c2ccc(F)cc2)CC1 [Form A, 2-[2-[4-[bis(4-fluorophenyl)methyl]-1-piperazinyl]ethoxy]acetic acid dihydrochloride] | 5.04 ± 0.34 mg/cm^2/min | 5.43 ± 0.32 mg/cm^2/min | 4.52 ± 0.34 mg/cm^2/min | 0 Relative % area | 0.04 Relative % area | 0.07 Relative % area | 0.13 Relative % area | 0.03 Relative % area | 0.29 Relative % area | 0.45 Relative % area | 0.46 Relative % area | quite low | quite low | no modifications of the spectrograms were observed | – | – | – |
